One test has as its system BALB/3T3 cells. Put plainly: Antiproliferative assay in vitro (SRB), 72 h. Type of test: cell-based, mouse. The following applies: Mus musculus, BALB/3T3, normal mice fibroblast cells, 72 h exposure, mean ± SD. The protocol: (§1) Biophenotypic B myelomonocytic leukaemia MV4-11, human lung carcinoma A549, human breast carcinoma MCF-7, human colon carcinoma LoVo, its drug resistant line LoVo/DX, liver carcinoma HepG2, and normal mouse fibroblast BALB/3T3 cells were obtained from the American Type Culture Collection (Rockville, Maryland, USA). All lines are being maintained at the Institute of Immunology and Experimental Therapy, Wrocław, Poland. All cell lines were grown in a humid atmosphere at 37 °C with 5% CO2 and were cultured in media according to the method described before.[18]
(§2) Prior to usage, the compounds were dissolved in DMSO to the concentration of 25 or 50 mM, and subsequently diluted in the culture medium to reach the required concentrations (ranging from 5 to 625 μM).
(§3) Twenty-four hours before addition of the tested compounds, the cells were plated in 96-well plates (Sarstedt, USA) at a density of 10^4 cells per well. All cell lines were exposed to each tested phosphatidylcholines for 72 h. Cells were also exposed to the commercially available drugs cisplatin and doxorubicin. Cell lines were also exposed to the solvent used for the tested compounds (DMSO) at concentrations corresponding to those present in the tested agents' dilutions. For adherent cells, a SRB assay was performed and an MTT assay was performed for leukaemia cells.
(§4) The cytotoxicity assay was performed after 72 h exposure of the cultured cells to varying concentrations (from 5 to 625 μM) of the tested agents. The cells attached to the plastic were fixed in situ by gently adding 50 μL per well of cold 50% TCA (trichloroacetic acid). The plates were incubated at 4 °C for 1 h and then washed five times with tap water. The background optical density was measured in the wells filled with culture medium, without the cells. The cellular material fixed with TCA was stained with 50 μL of 0.4% sulforhodamine B (SRB) dissolved in 1% acetic acid for 30 min. Unbound dye was removed by rinsing (4×) with 1% acetic acid. The protein-bound dye was extracted with 10 mM unbuffered Tris base for determination of the optical density (at 540 nm) in a computer-interfaced 96-well microtiter plate reader Multiskan RC photometer (Labsystems, Helsinki, Finland). Each compound in the given concentration was tested in triplicate in each experiment, which was repeated 3–5 times.
(§5) The results of the cytotoxic activity in vitro were expressed as IC50—the concentration of compound (in μM) that inhibits the proliferation rate of the tumor cells by 50% as compared to control untreated cells.

Test [1] deals with MV4-11 cells. As to the kind of experiment: Antiproliferative assay in vitro (MTT), 72 h. Type of test: cell-based, human. The settings on record: Homo sapiens, MV4-11; leukaemia cells, MTT, 72 h exposure, mean ± SD. As to the method:
as §1, §2, §3
This technique was applied for the cytotoxicity screening against leukemia cells. An assay was performed after 72 h exposure to varying concentrations (from 5 to 625 μM) of the tested agents. For the last 3–4 hours of incubation. 20 μL of MTT solution was added to each well (MTT: 3-(4,5-dimethylthiazol-2-yl)-2,5-diphenyl tetrazolium bromide; stock solution: 5 mg mL^−1, Sigma, Germany). The mitochondria of viable cells reduce the pale yellow MTT to a navy blue formazan: the more viable cells are present in a well, the more MTT will be reduced to formazan. When the incubation time was completed, 80 μL of the lysing mixture was added to each well (lysing mixture: 225 mL dimethylformamide, 67.5 g sodium dodecyl sulphate, and 275 mL of distilled water). After 24 h, when formazan crystals had been dissolved, the optical densities of the samples were read with a Multiskan RC photometer at 570 nm wavelength. Each compound in a given concentration was tested in triplicate in each experiment, which was repeated 3–5 times.
as §5

In test [2] the test system is MV4-11 cells. Put plainly: Cell cycle analysis (propidium iodide, flow cytometry). Type of test: cell-based, human. The settings on record: 50 μM, 72 h. The protocol: For cell cycle analysis, the cells MV4-11 were treated with the tested compound 5a dissolved in DMSO at a concentration of 50 μM. The cells were treated also only by the DMSO for comparison. After 72 h of incubation, the cells (1 × 10^6) were trypsinized and rinsed with cold PBS. Washed cell pellets were fixed for 24 h in 70% ethanol at −20 °C. After fixation, the cells were washed twice with PBS once again and resuspended in PBS. Next, RNAse (8 μg mL^−1, Fermentas, Germany) was added and the cells were incubated for 1 h at 37 °C. The cells were then stained with propidium iodide (50 μg mL^−1, Sigma Aldrich, Germany) at 4 °C for 30 min and the cellular DNA content was analyzed by flow cytometry using a BD LSRFortessa cytometer (BD Bioscience, San Jose, USA). Compounds at each concentration were tested at least three times independently. The control in the assay was the cells exposed to DMSO at a concentration of 0.05%. Data were analyzed using ModFit 3.2 software (Verity Software, USA).

Test [3] concerns MV4-11 cells. As to the kind of experiment: Determination of the mitochondrial membrane potential (JC-1, flow cytometry). Format: cell-based, human. The settings on record: 50 μM, 72 h. The protocol: The loss of mitochondrial membrane potential was estimated using the fluorescent probe JC-1 (Sigma Aldrich, Germany). […] The cells were exposed to the tested compound 5a at a concentration of 50 μM. The MV4-11 cells (5 × 10^5) were washed in phosphate-buffered saline (PBS) containing 2% FBS. The pelleted cells were resuspended in 100 μL of the warm cultured medium with the addition of 10 μL of JC-1 (the final concentration of JC-1 was 3 μg mL^−1) and were then incubated for 30 min at 37 °C. Next, the cells were washed with 1 mL of PBS with 2% FBS and resuspended in 300 μL of PBS with 2% FBS. The mitochondrial membrane potential was analyzed by flow cytometry using BD LSRFortessa cytometry. Compounds at each concentration were tested at least three times independently. The control in the assay was the cells exposed to DMSO at a concentrations of 0.05%. Data were analyzed using Flowing software 2.5.1.
In general terms: Flow cytometry measures light scatter and fluorescence of single cells or particles in a stream.

The test system of test [4] is MV4-11 cells. As to the kind of experiment: Cell death determination by Annexin V and PI staining. Format: cell-based, human. The settings on record: 50 μM, 72 h. As to the method: The MV4-11 cells were exposed to the test compound 5a at a concentration of 50 μM for 72 h. After incubation, the cells (2 × 10^5) were washed twice with PBS. APC-Annexin V (BD Pharmingen) was dissolved to the concentration of 1 mg mL^−1 in a binding buffer (HEPES buffer: 10 mM HEPES/NaOH), pH 7.4, 150 mM NaCl, 5 mM KCl, 1 mM MgCl2, 1.8 mM CaCl2, (IIET, Poland) and the cells were suspended in 200 μL of this 1 mg mL^−1 solution (freshly prepared each time). After the incubation in the dark (15 min) at room temperature, the solution (1 mg mL^−1) of propidium iodide (PI) was added prior to the analysis to give a final concentration of 0.1 mg mL^−1. Data acquisition was performed by flow cytometry using a BD LSRFortessa cytometer. Compound 5a was tested at least three times independently. The control in the assay was the cells exposed to DMSO at a concentration of 0.05%. Results were analyzed using Flowing software 2.5.1. […] Double-negative cells were live cells, PI+/Annexin V+ were late apoptotic or necrotic cells, and PI-/Annexin V+ were early apoptotic.

For a further test, the system named is MCF-7 cells. As to the kind of experiment: Antiproliferative assay in vitro (SRB), 72 h. Format: cell-based, human. The following applies: Homo sapiens, MCF7, breast cancer cells, 72 h exposure, mean ± SD. As to the method: as §1, §2, §3, §4, §5
A further test deals with HepG2 cells. As to the kind of experiment: Antiproliferative assay in vitro (SRB), 72 h. Format: cell-based, human. The settings on record: Homo sapiens, HepG2, liver cancer cells, 72 h exposure, mean ± SD. The protocol:
as §1, §2, §3, §4, §5

In a further test the test system is LoVo/DX cells. Put plainly: Antiproliferative assay in vitro (SRB), 72 h. Type of test: cell-based, human. As to the method:
as §1, §2, §3, §4, §5

A further test concerns LoVo cells. Put plainly: Antiproliferative assay in vitro (SRB), 72 h. Type of test: cell-based, human. The following applies: Homo sapiens, LoVo, colon cancer cells, 72 h exposure, mean ± SD. As to the method:
as §1, §2, §3, §4, §5

Another test deals with A549 cells. Put plainly: Antiproliferative assay in vitro (SRB), 72 h. Format: cell-based, human. The following applies: Homo sapiens, A549, lung cancer cells, 72 h exposure, mean ± SD, read-out: IC50 A-549. The protocol: as §1, §2, §3, §4, §5

As usually defined, the IC50 is the point on the concentration scale where inhibition reaches its midpoint.

With `CCCCCCCCCCCCCCCC(=O)OC[C@H](COP(=O)([O-])OCC[N+](C)(C)C)OC(=O)C=Cc1ccccc1` [Compound 5a, 1-Palmitoyl-2-cinnamoyl-sn-glycero-3-phosphocholine], the half-inhibitory concentration (IC50) in the test with BALB/3T3 cells is 114 ± 36.6 µM; with MV4-11 cells [1], 43.2 ± 9.9 µM; in the test on MCF-7 cells it was 64.6 ± 3.4 µM; with HepG2 cells, 228 ± 30.6 µM; with LoVo/DX cells (Homo sapiens, LoVo/DX, doxorubicin-resistant colon cancer cells, SRB, 72 h exposure, mean ± SD), 56.3 ± 0.8 µM; with LoVo cells, 52.3 ± 5 µM. For the same compound, the IC50 in the test with A549 cells worked out at 56.3 ± 0.4 µM. For the same compound, the “Effect on cell cycle” value in the test with MV4-11 cells [2] is “arrested cell cycle in the G2/M phase”. For the same compound, in the test with MV4-11 cells [3], the “Cells having a significantly lowered mitochondrial membrane potential (Ψm)” value was “about 45%”. Besides, in the test on MV4-11 cells [4], the “Induction of early apoptotic, apoptotic or necrotic cell death” value is given as “lack of induction”. Also, the “Resistance index (RI)” value in the test on LoVo/DX cells (doxorubicin-resistant LoVo/DX cell line versus LoVo) worked out at 1.08.

The values above are taken from article PMC9088016, “Synthesis and biological evaluation of phosphatidylcholines with cinnamic and 3-methoxycinnamic acids with potent antiproliferative activity” (RSC Advances, 2018).
